≈ marks a conversion by molar mass, not a printed value.
Test system: measles virus
Assay: microbe, parasite or virus in culture
Details: Measles morbillivirus, 24 h

First: CC(C)Oc1nn(-c2ccc(C3CC3)cn2)cc1Oc1ccccc1F [example 65, 5-cyclopropyl-2-(4-(2-fluorophenoxy)-3-isopropoxy-1H-pyrazol-1-yl)pyridine]
Second: CC(C)Oc1nn(-c2ccc(C3CC3)cn2)cc1Oc1ccccc1 [example 71, 5-cyclopropyl-2-(3-isopropoxy-4-phenoxy-1H-pyrazol-1-yl)pyridine]
The MIC50 of the first is lower: 0.0005 to 0.05 µM (≈ 0.000177 to 0.0177 µg/mL) for the first, 0.05 to 0.5 µM (≈ 0.0168 to 0.168 µg/mL) for the second.

`CC(C)Oc1nn(-c2ncc(C3CC3)cc2F)cc1Oc1ccccc1F` [example 66, 5-cyclopropyl-3-fluoro-2-(4-(2-fluorophenoxy)-3-isopropoxy-1H-pyrazol-1-yl)pyridine] and `CC(C)Oc1nn(-c2ncc(C3CC3)cc2F)cc1Oc1ccccc1` [example 70, 5-cyclopropyl-3-fluoro-2-(3-isopropoxy-4-phenoxy-1H-pyrazol-1-yl)pyridine] fall in the same range of MIC50: 0.0005 to 0.05 µM (≈ 0.000186 to 0.0186 µg/mL) for the first, 0.0005 to 0.05 µM (≈ 0.000177 to 0.0177 µg/mL) for the second.

`CCOc1nn(-c2ccc(C3CC3)cn2)c(C)c1Oc1ccccc1F` [example 68, 5-cyclopropyl-2-(3-ethoxy-4-(2-fluorophenoxy)-5-methyl-1H-pyrazol-1-yl)pyridine] and `Cc1c(Oc2ccccc2F)c(OC(C)C)nn1-c1ccc(C2CC2)cn1` [example 69, 5-cyclopropyl-2-(4-(2-fluorophenoxy)-3-isopropoxy-5-methyl-1H-pyrazol-1-yl)pyridine] fall in the same range of MIC50: 0.0005 to 0.05 µM (≈ 0.000177 to 0.0177 µg/mL) for the first, 0.0005 to 0.05 µM (≈ 0.000184 to 0.0184 µg/mL) for the second.

First: CCOc1nn(-c2ncc(CC)cn2)c(C)c1Oc1ccccc1 [example 72, 2-(3-ethoxy-5-methyl-4-phenoxy-1H-pyrazol-1-yl)-5-ethylpyrimidine]
Second: CCOc1nn(-c2ncc(CC)cn2)c(C)c1Oc1ccccc1F [example 73, 2-(3-ethoxy-4-(2-fluorophenoxy)-5-methyl-1H-pyrazol-1-yl)-5-ethylpyrimidine]
The MIC50 of the first is higher: 0.5 to 5 µM (≈ 0.162 to 1.62 µg/mL) for the first, 0.05 to 0.5 µM (≈ 0.0171 to 0.171 µg/mL) for the second.

`Cc1c(Oc2c(F)cccc2F)c(OC(C)C)nn1-c1ncccn1` [example 74, 2-(4-(2,6-difluorophenoxy)-3-isopropoxy-5-methyl-1H-pyrazol-1-yl)pyrimidine] and `Cc1cc(Br)cnc1-n1nc(OC(C)C)c(Oc2c(F)cccc2F)c1C` [example 85, 5-bromo-2-(4-(2,6-difluorophenoxy)-3-isopropoxy-5-methyl-1H-pyrazol-1-yl)-3-methylpyridine] fall in the same range of MIC50: 0.5 to 5 µM (≈ 0.173 to 1.73 µg/mL) for the first, 0.5 to 5 µM (≈ 0.219 to 2.19 µg/mL) for the second.

First: CC(C)Oc1nn(-c2ncc(C3CC3)cc2C#N)cc1Oc1ccccc1 [example 75, 5-cyclopropyl-2-(3-isopropoxy-4-phenoxy-1H-pyrazol-1-yl)nicotinonitrile]
Second: CC(C)Oc1nn(-c2ncc(C3CC3)cn2)cc1Oc1ccccc1 [example 100, 5-cyclopropyl-2-(3-isopropoxy-4-phenoxy-1H-pyrazol-1-yl)pyrimidine]
The MIC50 of the first is higher: greater than 5 µM for the first, 0.05 to 0.5 µM (≈ 0.0168 to 0.168 µg/mL) for the second.

`CCc1cnc(-n2nc(OC(C)C)c(Oc3ccc(F)cc3)c2C)nc1` [example 76, 5-ethyl-2-(4-(4-fluorophenoxy)-3-isopropoxy-5-methyl-1H-pyrazol-1-yl)pyrimidine] and `CCc1cnc(-n2nc(OC(C)C)c(Oc3cccc(F)c3F)c2C)nc1` [example 77, 2-(4-(2,3-difluorophenoxy)-3-isopropoxy-5-methyl-1H-pyrazol-1-yl)-5-ethylpyrimidine] fall in the same range of MIC50: 0.05 to 0.5 µM (≈ 0.0178 to 0.178 µg/mL) for the first, 0.05 to 0.5 µM (≈ 0.0187 to 0.187 µg/mL) for the second.

`CCOc1nn(-c2ncc(CC)cn2)c(C)c1Oc1ccccc1Cl` [example 78, 2-(4-(2-chlorophenoxy)-3-ethoxy-5-methyl-1H-pyrazol-1-yl)-5-ethylpyrimidine] and `CCOc1nn(-c2ncc(CC)cn2)c(C)c1Oc1cccc(Cl)c1Cl` [example 80, 2-(4-(2,3-dichlorophenoxy)-3-ethoxy-5-methyl-1H-pyrazol-1-yl)-5-ethylpyrimidine] fall in the same range of MIC50: 0.05 to 0.5 µM (≈ 0.0179 to 0.179 µg/mL) for the first, 0.05 to 0.5 µM (≈ 0.0197 to 0.197 µg/mL) for the second.

Compared with `CCOc1nn(-c2ncc(CC)cn2)c(C)c1Oc1cc(Cl)cc(Cl)c1` [example 79, 2-(4-(3,5-dichlorophenoxy)-3-ethoxy-5-methyl-1H-pyrazol-1-yl)-5-ethylpyrimidine], `CCOc1nn(-c2ncc(CC)cn2)c(C)c1Oc1ccc(C(F)(F)F)cc1` [example 83, 2-(3-ethoxy-5-methyl-4-(4-(trifluoromethyl)phenoxy)-1H-pyrazol-1-yl)-5-ethylpyrimidine] is higher in MIC50: 0.5 to 5 µM (≈ 0.197 to 1.97 µg/mL) for the first, greater than 5 µM for the second.

First: CCOc1nn(-c2ncc(CC)cn2)c(C)c1Oc1ccccc1C(F)(F)F [example 82, 2-(3-ethoxy-5-methyl-4-(2-(trifluoromethyl)phenoxy)-1H-pyrazol-1-yl)-5-ethylpyrimidine]
Second: CCc1cnc(-n2nc(OC(C)C)c(Cc3ccccc3OC)c2C)nc1 [example 101, 5-ethyl-2-(3-isopropoxy-4-(2-methoxybenzyl)-5-methyl-1H-pyrazol-1-yl)pyrimidine]
The MIC50 of the first is higher: 0.5 to 5 µM (≈ 0.196 to 1.96 µg/mL) for the first, 0.0005 to 0.05 µM (≈ 0.000183 to 0.0183 µg/mL) for the second.

`Cc1c(Oc2c(F)cccc2F)c(OC(C)C)nn1-c1ccc(C(C)(C)O)cn1` [example 84, 2-(6-(4-(2,6-difluorophenoxy)-3-isopropoxy-5-methyl-1H-pyrazol-1-yl)pyridin-3-yl)propan-2-ol] and `Cc1c(Oc2c(F)cccc2F)c(OC(C)C)nn1-c1ccc(C(C)(F)F)cn1` [example 91, 5-(1,1-difluoroethyl)-2-(4-(2,6-difluorophenoxy)-3-isopropoxy-5-methyl-1H-pyrazol-1-yl)pyridine] fall in the same range of MIC50: 0.05 to 0.5 µM (≈ 0.0202 to 0.202 µg/mL) for the first, 0.05 to 0.5 µM (≈ 0.0205 to 0.205 µg/mL) for the second.

`Cc1c(Oc2c(F)cccc2F)c(OC(C)C)nn1-c1ncc(Br)cc1F` [example 86, 5-bromo-2-(4-(2,6-difluorophenoxy)-3-isopropoxy-5-methyl-1H-pyrazol-1-yl)-3-fluoropyridine] and `CC(=O)c1ccc(-n2nc(OC(C)C)c(Oc3c(F)cccc3F)c2C)nc1` [example 87, 1-(6-(4-(2,6-difluorophenoxy)-3-isopropoxy-5-methyl-1H-pyrazol-1-yl)pyridin-3-yl)ethanone] fall in the same range of MIC50: 0.05 to 0.5 µM (≈ 0.0221 to 0.221 µg/mL) for the first, 0.05 to 0.5 µM (≈ 0.0194 to 0.194 µg/mL) for the second.

First: CCOc1nn(-c2ccc(C(C)=O)cn2)c(C)c1Cc1ccccc1 [example 88, 1-(6-(4-benzyl-3-ethoxy-5-methyl-1H-pyrazol-1-yl)pyridin-3-yl)ethanone]
Second: CCOc1nn(-c2ccc(C(C)(F)F)cn2)c(C)c1Cc1ccccc1 [example 99, 2-(4-benzyl-3-ethoxy-5-methyl-1H-pyrazol-1-yl)-5-(1,1-difluoroethyl)pyridine]
The MIC50 of the first is higher: greater than 5 µM for the first, 0.5 to 5 µM (≈ 0.179 to 1.79 µg/mL) for the second.

Compared with `Cc1c(Cc2ccccc2)c(OC(C)C)nn1-c1ncccc1C#N` [example 89, 2-(4-benzyl-3-isopropoxy-5-methyl-1H-pyrazol-1-yl)nicotinonitrile], `Cc1c(Cc2ccccc2F)c(OC(C)C)nn1-c1ccc(C2CC2)cn1` [example 90, 5-cyclopropyl-2-(4-(2-fluorobenzyl)-3-isopropoxy-5-methyl-1H-pyrazol-1-yl)pyridine] is lower in MIC50: 0.5 to 5 µM (≈ 0.166 to 1.66 µg/mL) for the first, 0.05 to 0.5 µM (≈ 0.0183 to 0.183 µg/mL) for the second.

`CCOc1nn(-c2ccc(C3CC3)cn2)c(C)c1Oc1ccccc1` [example 92, 5-cyclopropyl-2-(3-ethoxy-5-methyl-4-phenoxy-1H-pyrazol-1-yl)pyridine] and `CCOc1nn(-c2ccc(C3CC3)cn2)c(C)c1Oc1cccc(C(F)(F)F)c1` [example 93, 5-cyclopropyl-2-(3-ethoxy-5-methyl-4-(3-(trifluoromethyl)phenoxy)-1H-pyrazol-1-yl)pyridine] fall in the same range of MIC50: 0.05 to 0.5 µM (≈ 0.0168 to 0.168 µg/mL) for the first, 0.05 to 0.5 µM (≈ 0.0202 to 0.202 µg/mL) for the second.

`CCOc1nn(-c2ccc(C3CC3)cn2)c(C)c1Oc1ccc(C(F)(F)F)cc1` [example 94, 5-cyclopropyl-2-(3-ethoxy-5-methyl-4-(4-(trifluoromethyl)phenoxy)-1H-pyrazol-1-yl)pyridine] and `Cc1c(Oc2ccc(F)cc2)c(OC(C)C)nn1-c1ccc(C2CC2)cn1` [example 98, 5-cyclopropyl-2-(4-(4-fluorophenoxy)-3-isopropoxy-5-methyl-1H-pyrazol-1-yl)pyridine] fall in the same range of MIC50: 0.5 to 5 µM (≈ 0.202 to 2.02 µg/mL) for the first, 0.5 to 5 µM (≈ 0.184 to 1.84 µg/mL) for the second.

`CCOc1nn(-c2ccc(C3CC3)cn2)c(C)c1Oc1cc(Cl)ccc1Cl` [example 95, 5-cyclopropyl-2-(4-(2,5-dichlorophenoxy)-3-ethoxy-5-methyl-1H-pyrazol-1-yl)pyridine] and `CCOc1nn(-c2ccc(C3CC3)cn2)c(C)c1Oc1cc(Cl)cc(Cl)c1` [example 96, 5-cyclopropyl-2-(4-(3,5-dichlorophenoxy)-3-ethoxy-5-methyl-1H-pyrazol-1-yl)pyridine] fall in the same range of MIC50: 0.05 to 0.5 µM (≈ 0.0202 to 0.202 µg/mL) for the first, 0.05 to 0.5 µM (≈ 0.0202 to 0.202 µg/mL) for the second.

First: Cc1c(Oc2cccc(F)c2)c(OC(C)C)nn1-c1ccc(C2CC2)cn1 [example 97, 5-cyclopropyl-2-(4-(3-fluorophenoxy)-3-isopropoxy-5-methyl-1H-pyrazol-1-yl)pyridine]
Second: Cc1c(Oc2cccnc2)c(OC(C)C)nn1-c1ncc(C2CC2)cn1 [example 110, 5-cyclopropyl-2-(3-isopropoxy-5-methyl-4-(pyridin-3-yloxy)-1H-pyrazol-1-yl)pyrimidine]
The MIC50 of the first is lower: 0.05 to 0.5 µM (≈ 0.0184 to 0.184 µg/mL) for the first, 0.5 to 5 µM (≈ 0.176 to 1.76 µg/mL) for the second.

First: CCc1cnc(-n2nc(OC(C)C)c(Cc3cccc(OC)c3)c2C)nc1 [example 102, 5-ethyl-2-(3-isopropoxy-4-(3-methoxybenzyl)-5-methyl-1H-pyrazol-1-yl)pyrimidine]
Second: CCc1cnc(-n2nc(OC(C)C)c(Cc3ccc(OC)cc3)c2C)nc1 [example 111, 5-ethyl-2-(3-isopropoxy-4-(4-methoxybenzyl)-5-methyl-1H-pyrazol-1-yl)pyrimidine]
The MIC50 of the first is lower: 0.0005 to 0.05 µM (≈ 0.000183 to 0.0183 µg/mL) for the first, 0.05 to 0.5 µM (≈ 0.0183 to 0.183 µg/mL) for the second.

First: CCc1cnc(-n2nc(OCCOCc3ccccc3)c(Cc3ccccc3)c2C)nc1 [example 103, 2-(4-benzyl-3-(2-(benzyloxy)ethoxy)-5-methyl-1H-pyrazol-1-yl)-5-ethylpyrimidine]
Second: CCOc1nn(-c2ncc(CC)cn2)c(C)c1I [example 106, 2-(3-ethoxy-4-iodo-5-methyl-1H-pyrazol-1-yl)-5-ethylpyrimidine]
The MIC50 of the first is lower: 0.0005 to 0.05 µM (≈ 0.000214 to 0.0214 µg/mL) for the first, greater than 5 µM for the second.

Compared with `CC(C)Oc1nn(-c2ncc(C3CC3)cn2)cc1Sc1ccccc1` [example 104, 5-cyclopropyl-2-(3-isopropoxy-4-(phenylthio)-1H-pyrazol-1-yl)pyrimidine], `CC(C)Oc1nn(-c2ccc(C3CC3)cn2)cc1Sc1ccccc1` [example 105, 5-cyclopropyl-2-(3-isopropoxy-4-(phenylthio)-1H-pyrazol-1-yl)pyridine] is higher in MIC50: 0.0005 to 0.05 µM (≈ 0.000176 to 0.0176 µg/mL) for the first, 0.05 to 0.5 µM (≈ 0.0176 to 0.176 µg/mL) for the second.

`CCOc1nn(-c2ncc(CC)cn2)cc1I` [example 107, 2-(3-ethoxy-4-iodo-1H-pyrazol-1-yl)-5-ethylpyrimidine] and `CCOc1nn(-c2ccc(C3CC3)cn2)c(C)c1I` [example 108, 5-cyclopropyl-2-(3-ethoxy-4-iodo-5-methyl-1H-pyrazol-1-yl)pyridine] cannot be ordered by MIC50: greater than 5 µM for the first, greater than 5 µM for the second.

In the case of `CC(C)Oc1nn(-c2ccc(C3CC3)cn2)cc1C(=O)c1ccccc1` [example 109, (1-(5-cyclopropylpyridin-2-yl)-3-isopropoxy-1H-pyrazol-4-yl)(phenyl)methanone], the MIC50 was 0.5 to 5 µM (≈ 0.174 to 1.74 µg/mL).

Source: patent publication EP2929883A1, “Pyrazole derivatives as dihydroorotate dehydrogenase (DHODH) inhibitors” (INSTITUT PASTEUR, priority 2014, dated 2015)
